“Also recorded” adds a separate entry of the source.
How the values were obtained:
[1] = system: ACE2 release from the plasma membrane of CHO cells expressing full-length human ACE2; assay: Shedding of ACE2 from Chinese hamster ovary cells (ACE2 activity in medium, QFS assay); assay type: cell-based; conditions: PMA 1 μM, 4 hr incubation
Protocol: ACE2 catalytic activity was measured by cleavage of a quenched fluorescent substrate (QFS), namely (7-methoxycoumarin-4-yl)-acetyl-Ala-Pro-Lys(2,4-dinitrophenyl) as published in Vickers et al, 2002. The substrate is kept as stock at 5 mg/ml (7.14 mM) at −20° C. in DMSO, diluted 14.28-fold in ACE2 buffer (100 mM Tris-HCl, 1 M NaCl, pH 6.5) for a 500 μM working stock for assay. Assays were performed in black 96-well microtiter plates with 100 μl/well sample and ACE2 buffer in a final volume of 200 μl per well. In a separate series of wells, 100 μl/well sample, […] ACE2 buffer, and 20 μl/well of the specific ACE2 activity inhibitor, MLN-4760 (Millenium Pharmaceuticals, Cambridge, Mass., USA) at 100 mM is added. 50 μM QFS (20 μl/well) is then added to all wells.
Reactions proceeded at 37° C. within a temperature-controlled fluorescence microplate reader (FLUOStar Optima, BMG Labtech, Offenburg, Germany) and continuous readings of the liberated fluorescence taken over a 4 hr period (λex=320 nm, λem =405 nm). Specific ACE2 activity was calculated by subtraction of fluorescence in the presence of MLN-4760 inhibitor from the fluorescence in the absence of the MLN-4760 inhibitor.
Full-length human ACE2 was expressed in Chinese hamster ovary (CHO) cells using a modified DEAE-Dextran transfection method. […]

[2] = system: HepG2 cells; assay: Shedding of ACE2 from HepG2 cells; assay type: cell-based; conditions: endogenous ACE2, phorbol ester treatment, data not shown

Compound: CCCCCCCCCCCCCC(=O)O[C@@H]1[C@@H](C)[C@@]2(O)[C@@H](C=C(CO)C[C@]3(O)C(=O)C(C)=C[C@@H]23)[C@@H]2C(C)(C)[C@]12OC(C)=O [PMA]
- ACE2 release from the plasma membrane (ACE2 catalytic activity in medium) [1]: increased; also recorded: enhanced
- ACE2 release from the plasma membrane (ACE2 catalytic activity in medium) ([1]; listed as phorbol ester): increased up to two-fold
- shedding of ACE2 [2]: increased up to two-fold

Reference: patent US20070042452A1, “Detection of plasma ACE2” (priority 2005, published 2007)
